Source: patent US9125913B2, “Bcl-2-selective apoptosis-inducing agents for the treatment of cancer and immune diseases” (AbbVie Inc., priority 2008, dated 2015)

What was measured:
GST-Bcl-2 = experiment: TR-FRET binding assay, Bcl-2; conditions: TR-FRET Ki values
How it was run: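 Compounds serially diluted in DMSO from 50 μM (2× starting concentration, 10% DMSO), mixed with GST-tagged protein, F-Bak peptide probe and Tb-labeled antibody, incubated 3 h at room temperature.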

FL5.12/Bcl-2 cells = experiment: FL5.12/Bcl-2 cell viability assay; type: cell-based, murine; conditions: ratio of canine platelet EC50 to FL5.12/Bcl-2 EC50
How it was run: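 Viability measured by CellTitre Glo after FL5.12/Bcl-2 murine cells, starved of IL-3 for 48 hrs, were treated with compounds for another 24 hrs. Killing reflects inhibition of Bcl-2 sequestration of Bim and Puma.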

| Compound | Binding selectivity ratio (Bcl-XL Ki/Bcl-2 Ki) (GST-Bcl-2) | Selectivity Ratio (Platelet EC50/FL5.12/Bcl-2 EC50) (FL5.12/Bcl-2 cells) |
| --- | --- | --- |
| CN(C)CCCNc1ccc(S(=O)(=O)NC(=O)c2ccc(N3CCN(CC4=C(c5ccc(Cl)cc5)CC(C)(C)CC4)CC3)cc2Oc2ccc3[nH]ccc3c2)cc1[N+](=O)[O-] [Example 53, 4-(4-{[2-(4-chlorophenyl)-4,4-dimethylcyclohex-1-en-1-yl]methyl}piperazin-1-yl)-N-[(4-{[3-(dimethylamino)propyl]amino}-3-nitrophenyl)sulfonyl]-2-(1H-indol-5-yloxy)benzamide] | 59.8 | 1697 |
| CN1CCC(CNc2ccc(S(=O)(=O)NC(=O)c3ccc(N4CCN(Cc5ccccc5-c5ccc(Cl)cc5)CC4)cc3Oc3ccccc3)cc2[N+](=O)[O-])CC1 [Example 88, 4-{4-[(4′-chloro-1,1′-biphenyl-2-yl)methyl]piperazin-1-yl}-N-[(4-{[(1-methylpiperidin-4-yl)methyl]amino}-3-nitrophenyl)sulfonyl]-2-phenoxybenzamide] | 67.3 | 613 |
| CC1(C)CCC(CN2CCN(c3ccc(C(=O)NS(=O)(=O)c4ccc(NC5CCN(C6CCOCC6)CC5)c([N+](=O)[O-])c4)c(Oc4ccc5[nH]ccc5c4)c3)CC2)=C(c2ccc(Cl)cc2)C1 [Example 173, 4-(4-{[2-(4-chlorophenyl)-4,4-dimethylcyclohex-1-en-1-yl]methyl}piperazin-1-yl)-2-(1H-indol-5-yloxy)-N-({3-nitro-4-[(1-tetrahydro-2H-pyran-4-ylpiperidin-4-yl)amino]phenyl}sulfonyl)benzamide] | 204.6 | >4587 |
| CN(C)CCOc1cccc(-c2ccc(Cl)cc2)c1CN1CCN(c2ccc(C(=O)NS(=O)(=O)c3ccc(NCCCN4CCCC4)c([N+](=O)[O-])c3)c(Oc3ccc4[nH]ccc4c3)c2)CC1 [Example 134, 4-[4-({4′-chloro-3-[2-(dimethylamino)ethoxy]-1,1′-biphenyl-2-yl}methyl)piperazin-1-yl]-2-(1H-indol-5-yloxy)-N-({3-nitro-4-[(3-pyrrolidin-1-ylpropyl)amino]phenyl}sulfonyl)benzamide] | 347.1 | 98 |
| O=C(NS(=O)(=O)c1ccc(NCCCN2CCCC2)c([N+](=O)[O-])c1)c1ccc(N2CCN(CC3=C(c4ccc(Cl)cc4)CCC3)CC2)cc1Oc1cccc2[nH]ccc12 [Example 143, 4-(4-{[2-(4-chlorophenyl)cyclopent-1-en-1-yl]methyl}piperazin-1-yl)-2-(1H-indol-4-yloxy)-N-({3-nitro-4-[(3-pyrrolidin-1-ylpropyl)amino]phenyl}sulfonyl)benzamide] | 33.8 | >251 |
| CN1CCC(Nc2ccc(S(=O)(=O)NC(=O)c3ccc(N4CCN(CC5=C(c6ccc(Cl)cc6)CC(C)(C)CC5)CC4)cc3Oc3ccc4c(c3)CCCN4)cc2[N+](=O)[O-])CC1 [Example 23, 4-(4-{[2-(4-chlorophenyl)-4,4-dimethylcyclohex-1-en-1-yl]methyl}piperazin-1-yl)-N-({4-[(1-methylpiperidin-4-yl)amino]-3-nitrophenyl}sulfonyl)-2-(1,2,3,4-tetrahydroquinolin-6-yloxy)benzamide] | 25.3 | >35 |
| CN(C)CCOc1ccc(-c2ccc(Cl)cc2)c(CN2CCN(c3ccc(C(=O)NS(=O)(=O)c4ccc(NCCCN5CCCC5)c([N+](=O)[O-])c4)c(Oc4ccccc4)c3)CC2)c1 [Example 121, 4-[4-({4′-chloro-4-[2-(dimethylamino)ethoxy]-1,1′-biphenyl-2-yl}methyl)piperazin-1-yl]-N-({3-nitro-4-[(3-pyrrolidin-1-ylpropyl)amino]phenyl}sulfonyl)-2-phenoxybenzamide] | 388 | 8 |
| CN1CCN(Nc2ccc(S(=O)(=O)NC(=O)c3ccc(N4CCN(CC5=C(c6ccc(Cl)cc6)CC(C)(C)CC5)CC4)cc3Oc3ccc4[nH]ccc4c3)cc2[N+](=O)[O-])CC1 [Example 174, 4-(4-{[2-(4-chlorophenyl)-4,4-dimethylcyclohex-1-en-1-yl]methyl}piperazin-1-yl)-2-(1H-indol-5-yloxy)-N-({4-[(4-methylpiperazin-1-yl)amino]-3-nitrophenyl}sulfonyl)benzamide] | 591.3 | 1857 |
| CC1(C)CCC(CN2CCN(c3ccc(C(=O)NS(=O)(=O)c4ccc(NC5CCN(C6CCCC6)CC5)c([N+](=O)[O-])c4)c(Oc4ccc5[nH]ccc5c4)c3)CC2)=C(c2ccc(Cl)cc2)C1 [Example 26, 4-(4-{[2-(4-chlorophenyl)-4,4-dimethylcyclohex-1-en-1-yl]methyl}piperazin-1-yl)-N-({4-[(1-cyclopentylpiperidin-4-yl)amino]-3-nitrophenyl}sulfonyl)-2-(1H-indol-5-yloxy)benzamide] | >4714.3 | >1429 |
| O=C(NS(=O)(=O)c1ccc(NCC2CCOCC2)c([N+](=O)[O-])c1)c1ccc(N2CCN(Cc3c(OCCN4CCOCC4)cccc3-c3ccc(Cl)cc3)CC2)cc1Oc1cccc2[nH]ccc12 [Example 131, 4-(4-{[4′-chloro-3-(2-morpholin-4-ylethoxy)-1,1′-biphenyl-2-yl]methyl}piperazin-1-yl)-2-(1H-indol-4-yloxy)-N-({3-nitro-4-[(tetrahydro-2H-pyran-4-ylmethyl)amino]phenyl}sulfonyl)benzamide] | 2292.2 | >1597 |
| CC1(C)CCC(CN2CCN(c3ccc(C(=O)NS(=O)(=O)c4ccc(NCCCN5CCOCC5)c([N+](=O)[O-])c4)c(Oc4ccc5[nH]ccc5c4)c3)CC2)=C(c2ccc(Cl)cc2)C1 [Example 52, 4-(4-{[2-(4-chlorophenyl)-4,4-dimethylcyclohex-1-en-1-yl]methyl}piperazin-1-yl)-2-(1H-indol-5-yloxy)-N-({4-[(3-morpholin-4-ylpropyl)amino]-3-nitrophenyl}sulfonyl)benzamide] | 333.9 | >3164 |
| CN(C)CCCNc1ccc(S(=O)(=O)NC(=O)c2ccc(N3CCN(CC4=C(c5ccc(Cl)cc5)CCC(C)(C)C4)CC3)cc2Oc2cccc3[nH]ccc23)cc1[N+](=O)[O-] [Example 56, 4-(4-{[2-(4-chlorophenyl)-5,5-dimethylcyclohex-1-en-1-yl]methyl}piperazin-1-yl)-N-[(4-{[3-(dimethylamino)propyl]amino}-3-nitrophenyl)sulfonyl]-2-(1H-indol-4-yloxy)benzamide] | 48.2 | 554 |
| O=C(NS(=O)(=O)c1ccc(NCC2CCOCC2)c([N+](=O)[O-])c1)c1ccc(N2CCN(Cc3ccccc3-c3ccc(Cl)cc3)CC2)cc1Oc1ccc2[nH]ccc2c1 [Example 40, 4-{4-[(4′-chloro-1,1′-biphenyl-2-yl)methyl]piperazin-1-yl}-2-(1H-indol-5-yloxy)-N-({3-nitro-4-[(tetrahydro-2H-pyran-4-ylmethyl)amino]phenyl}sulfonyl)benzamide] | >1236.0 | >303 |
| CC1(C)CCC(CN2CCN(c3ccc(C(=O)NS(=O)(=O)c4ccc(NCCCN5CCCC5)c([N+](=O)[O-])c4)c(Oc4cccc5[nH]ccc45)c3)CC2)=C(c2ccc(C(F)(F)F)cc2)C1 [Example 69, 4-[4-({4,4-dimethyl-2-[4-(trifluoromethyl)phenyl]cyclohex-1-en-1-yl}methyl)piperazin-1-yl]-2-(1H-indol-4-yloxy)-N-({3-nitro-4-[(3-pyrrolidin-1-ylpropyl)amino]phenyl}sulfonyl)benzamide] | 74 | >666 |
| CN(C)CCOc1cccc(-c2ccc(Cl)cc2)c1CN1CCN(c2ccc(C(=O)NS(=O)(=O)c3ccc(NCC4CCOCC4)c([N+](=O)[O-])c3)c(Oc3cccc4[nH]ccc34)c2)CC1 [Example 128, 4-[4-({4′-chloro-3-[2-(dimethylamino)ethoxy]-1,1′-biphenyl-2-yl}methyl)piperazin-1-yl]-2-(1H-indol-4-yloxy)-N-({3-nitro-4-[(tetrahydro-2H-pyran-4-ylmethyl)amino]phenyl}sulfonyl)benzamide] | 7117.6 | >2000 |
| CC1(C)CCC(CN2CCN(c3ccc(C(=O)NS(=O)(=O)c4ccc(NCCCN5CCOCC5)c([N+](=O)[O-])c4)c(Oc4cccc5[nH]ccc45)c3)CC2)=C(c2ccc(Cl)cc2)C1 [Example 55, 4-(4-{[2-(4-chlorophenyl)-4,4-dimethylcyclohex-1-en-1-yl]methyl}piperazin-1-yl)-2-(1H-indol-4-yloxy)-N-({4-[(3-morpholin-4-ylpropyl)amino]-3-nitrophenyl}sulfonyl)benzamide] | 126.9 | 1614 |
| CN1CCC(Nc2ccc(S(=O)(=O)NC(=O)c3ccc(N4CCN(CC5=C(c6ccc(Cl)cc6)CCCC5)CC4)cc3Oc3cccc4[nH]ccc34)cc2[N+](=O)[O-])CC1 [Example 149, 4-(4-{[2-(4-chlorophenyl)cyclohex-1-en-1-yl]methyl}piperazin-1-yl)-2-(1H-indol-4-yloxy)-N-({4-[(1-methylpiperidin-4-yl)amino]-3-nitrophenyl}sulfonyl)benzamide] | >2490.6 | 1298 |
